Columns and labels:
[1] = Cytotoxicity against Human immunodeficiency virus 1 NL4-3 infected in human MT4 cells assessed as reduction in cell viability measured after 5 days by MTT assay; assay type: cell-based; settings: MT4 cells infected with HIV-1 NL4-3, time 5 day
[2] = tested on: Human immunodeficiency virus 1; test: Antiviral activity against Human immunodeficiency virus 1 NL4-3 infected in human MT4 cells assessed as reduction in virus-induced cytopathogenicity measured after 5 days by MTT assay; assay type: functional, organism-based; settings: Human immunodeficiency virus 1, NL4-3, MT4, 120 h
[3] = Cytotoxicity against Human immunodeficiency virus 1 NLAD8 infected in human PM1 cells expressing CCR5 assessed as cell viability measured after 5 days by MTT assay; assay type: cell-based; settings: PM1 cells expressing CCR5 infected with HIV-1 NLAD8, time 5 day
[4] = tested on: Human immunodeficiency virus 1; test: Antiviral activity against Human immunodeficiency virus 1 NLAD-8 infected in human PM1 cells expressing CCR5 assessed as reduction in virus-induced cytopathogenicity measured after 5 days by MTT assay; assay type: functional, organism-based; settings: Human immunodeficiency virus 1, NLAD-8, PM1, 120 h

SMILES | CC50 at 120 h [1] | EC50 [2] | CC50 at 120 h [3] | EC50 [4]
CC[C@H](C)[C@H](NC(C)=O)C(=O)N[C@H](C(=O)N[C@@H](CCCNC(=N)N)C(=O)N[C@@H](CCSC)C(=O)N[C@@H](Cc1ccc(O)cc1)C(=O)N[C@@H](CO)C(=O)N1CCC[C@H]1C(=O)N[C@H](C(=O)N[C@@H](CO)C(=O)N[C@H](C(=O)N[C@@H](CC(C)C)C(=O)N[C@@H](CC(=O)O)C(=O)N[C@H](C(=O)N[C@@H](CCCNC(=N)N)C(=O)N[C@@H](CCC(N)=O)C(=O)NCC(=O)N[C@@H](CSCC(=O)N[C@@H](CCCNC(=N)N)C(=O)N[C@@H](CCCNC(=N)N)C(=O)N[C@@H](CCCNC(=N)N)C(=O)N[C@@H](CCCNC(=N)N)C(=O)N[C@@H](CCCNC(=N)N)C(=O)N[C@@H](CCCNC(=N)N)C(=O)N[C@@H](CCCNC(=N)N)C(=O)N[C@@H](CCCNC(=N)N)C(N)=O)C(N)=O)[C@@H](C)CC)[C@@H](C)CC)[C@@H](C)O)C(C)C | 9.3 µM | 4.6 µM | 18 µM | 1.2 µM
CC[C@H](C)[C@H](NC(C)=O)C(=O)N[C@H](C(=O)N[C@@H](CCCNC(=N)N)C(=O)N[C@@H](CCSC)C(=O)N[C@@H](Cc1ccc(O)cc1)C(=O)N[C@@H](CO)C(=O)N1CCC[C@H]1C(=O)N[C@H](C(=O)N[C@@H](COP(=O)(O)O)C(=O)N[C@H](C(=O)N[C@@H](CC(C)C)C(=O)N[C@@H](CC(=O)O)C(=O)N[C@H](C(=O)N[C@@H](CCCNC(=N)N)C(=O)N[C@@H](CCC(N)=O)C(=O)NCC(=O)N[C@@H](CSCC(=O)N[C@@H](CCCNC(=N)N)C(=O)N[C@@H](CCCNC(=N)N)C(=O)N[C@@H](CCCNC(=N)N)C(=O)N[C@@H](CCCNC(=N)N)C(=O)N[C@@H](CCCNC(=N)N)C(=O)N[C@@H](CCCNC(=N)N)C(=O)N[C@@H](CCCNC(=N)N)C(=O)N[C@@H](CCCNC(=N)N)C(N)=O)C(N)=O)[C@@H](C)CC)[C@@H](C)CC)[C@@H](C)O)C(C)C | 44 µM | > 44 µM | > 50 µM | > 50 µM
CC[C@H](C)[C@H](NC(C)=O)C(=O)N[C@H](C(=O)N[C@@H](CCCNC(=N)N)C(=O)N[C@@H](CCSC)C(=O)N[C@@H](Cc1ccc(O)cc1)C(=O)N[C@@H](CO)C(=O)N1CCC[C@H]1C(=O)N[C@H](C(=O)N[C@@H](CCC(=O)O)C(=O)N[C@H](C(=O)N[C@@H](CC(C)C)C(=O)N[C@@H](CC(=O)O)C(=O)N[C@H](C(=O)N[C@@H](CCCNC(=N)N)C(=O)N[C@@H](CCC(N)=O)C(=O)NCC(=O)N[C@@H](CSCC(=O)N[C@@H](CCCNC(=N)N)C(=O)N[C@@H](CCCNC(=N)N)C(=O)N[C@@H](CCCNC(=N)N)C(=O)N[C@@H](CCCNC(=N)N)C(=O)N[C@@H](CCCNC(=N)N)C(=O)N[C@@H](CCCNC(=N)N)C(=O)N[C@@H](CCCNC(=N)N)C(=O)N[C@@H](CCCNC(=N)N)C(N)=O)C(N)=O)[C@@H](C)CC)[C@@H](C)CC)[C@@H](C)O)C(C)C | 31 µM | > 31 µM | > 50 µM | > 50 µM
CC[C@H](C)[C@H](NC(C)=O)C(=O)N[C@H](C(=O)N[C@@H](CCCNC(=N)N)C(=O)N[C@@H](CCSC)C(=O)N[C@@H](Cc1ccc(O)cc1)C(=O)N[C@@H](CO)C(=O)N1CCC[C@H]1C(=O)N[C@H](C(=O)N[C@@H](CC(F)(F)P(=O)(O)O)C(=O)N[C@H](C(=O)N[C@@H](CC(C)C)C(=O)N[C@@H](CC(=O)O)C(=O)N[C@H](C(=O)N[C@@H](CCCNC(=N)N)C(=O)N[C@@H](CCC(N)=O)C(=O)NCC(=O)N[C@@H](CSCC(=O)N[C@@H](CCCNC(=N)N)C(=O)N[C@@H](CCCNC(=N)N)C(=O)N[C@@H](CCCNC(=N)N)C(=O)N[C@@H](CCCNC(=N)N)C(=O)N[C@@H](CCCNC(=N)N)C(=O)N[C@@H](CCCNC(=N)N)C(=O)N[C@@H](CCCNC(=N)N)C(=O)N[C@@H](CCCNC(=N)N)C(N)=O)C(N)=O)[C@@H](C)CC)[C@@H](C)CC)[C@@H](C)O)C(C)C | > 50 µM | > 50 µM | > 50 µM | > 50 µM
c1cc(CN2CCCNCCNCCCNCC2)ccc1CN1CCCNCCNCCCNCC1 [PLERIXAFOR] | > 50 µM | 0.035 µM | > 50 µM | > 50 µM
COC[C@@H](c1ccc(C(F)(F)F)cc1)N1CCN(C2(C)CCN(C(=O)c3c(C)ncnc3C)CC2)C[C@@H]1C [VICRIVIROC] | > 5 µM | > 5 µM | > 5 µM | 0.014 µM
Cc1cn([C@H]2C[C@H](N=[N+]=[N-])[C@@H](CO)O2)c(=O)[nH]c1=O [ZIDOVUDINE] | > 50 µM | 0.043 µM | > 100 µM | 0.3 µM
